In US20090258914A1, “Inhibitor of Anti-Apoptotic Proteins” (Burnham Institute for Medical Research, priority 2008, published 2009):

Tests used:
[1] = Microsomal stability; type: in vitro ADME
[2] = Plasma stability; type: in vitro ADME
[3] = system: RS11846S; assay: Cell viability IC50, RS11846S; type: cell-based; settings: mean ± standard deviation of three independent experiments
Procedure: (§1) The effectiveness of compound A was also evaluated, in comparison with compound 1 shown in Table 1, by determining mean IC50 values, which were measured for three independent experiments (each in triplicate) for compounds 1 and A. All points were normalized to control as a percentage of cell viability and statistics were completed with Graphpad Prism software.

[4] = molecular target: T1, BCL-xL (Homo sapiens, UniProt Q07817); assay: Dissociation constant (Kd) / binding to BCL-xL
T1 construct: Recombinant full length BCL-XL was produced from a pET-19b (Novagen) plasmid construct; poly-His (N); made in house; host or cells: E. coli BL21
Procedure: The inhibition was also evaluated by measuring dissociation constant (Kd) values for compound A in comparison with some related compounds 1, 2, and 3.
For all NMR experiments, BCL-xL was exchanged into 50 mM phosphate buffer at pH 7.5 and measurements were performed at 30° C. 2D [^15N,^1H]-HSQC spectra for BCL-xL were measured with 0.5 mM samples of ^15N-labeled protein. All experiments were performed with a 600 MHz Bruker Avance spectrometer, both equipped with either a TXI probe or a TCI cryoprobe. In all experiments, dephasing of residual water signals was obtained with a WATERGATE sequence. In order to test the ability of test compounds to bind to Bcl-xL, a 25 μM sample of the protein was prepared and 1D ^1H NMR spectra were collected in absence and presence of test compounds. By observing the aliphatic region of the spectra, binding can be readily detected in these simple experiments due to chemical shift changes in active site methyl groups of Ile, Leu, Thr, Val or Ala (region between 0.8 and 0.3 ppm).

[5] = system: H460; assay: Cell viability, H460; type: cell-based; settings: for IC50: Homo sapiens, NCI-H460, cell viability, mean ± standard deviation of three independent experiments
Procedure: (§2) The inhibition information for cells H460 and PC3ML is also shown by FIG. 2. […] The structures of compounds 1-3 are shown in Table 1, above, and the structure of compound 4 is as follows:
as §1

[6] = system: PC3ML; assay: Cell viability, PC3ML; type: cell-based; settings: for IC50: PC3-ML, cell viability, mean ± standard deviation of three independent experiments
Procedure: as §2, §1

[7] = system: A549L; assay: Cell viability IC50, A549L; type: cell-based; settings: mean ± standard deviation of three independent experiments
Procedure: as §1

[8] = system: B6Bcl2 mice; assay: Safety in B6Bcl2 mice (weight loss, physical exam); type: in vivo, mouse; settings: regardless of route of administration (oral or intraperitoneal)
Procedure: (§3) Compound A was given to B6Bcl2 mice at a daily dose of […] for 3 days through oral gavage. […] Both compound A and the negative control were preliminarily dissolved in PBS. After 3 days, the spleens of the animals were removed and weighed.
(§4) In parallel experiments, compound A was also administered intraperitoneally at […], as were some related compounds, such as compounds 1 and 2 shown in Table 1, above. In these experiments, after 24 hours, the spleens of the animals were removed and weighed.
(§5) The results of efficacy of compound A administered intraperitoneally were also compared with the results obtained when compound A was administered orally. […] Accordingly, compound A can be administered in both ways, orally or intraperitoneally. […] It was also shown that compound A can be administered safely.

[9] = system: B6Bcl2 mice; assay: Spleen shrinkage / in vivo efficacy in B6Bcl2 transgenic mice; parameters: species or system mouse; settings: for in vivo activity / order of potency in terms of in vivo efficacy: B6BCL-2 transgenic mouse
From the text: In the same model, another known compound apogossypolone was not effective. Gossypol is described, e.g., in U.S. Pat. No. 7,186,708. Apogossypol is described, e.g., in Meyers A. I.; Willemsen J. J., Tetrahedron Letters, vol. 37, No. 6, February, […], pp. 791-792.
as §3, §4, §5

[10] = FIG. 2, in comparison with compounds 1-4

T1 sequence (Q07817 whole entry, species assumed): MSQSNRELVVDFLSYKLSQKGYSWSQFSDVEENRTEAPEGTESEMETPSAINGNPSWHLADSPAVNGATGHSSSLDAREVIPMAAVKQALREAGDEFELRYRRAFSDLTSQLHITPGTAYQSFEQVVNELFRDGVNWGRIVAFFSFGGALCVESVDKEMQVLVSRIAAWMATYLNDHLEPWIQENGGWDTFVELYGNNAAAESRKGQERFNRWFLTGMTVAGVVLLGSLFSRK

Compound | Microsomal Stability, % (45 minutes) [1] | Plasma Stability, % (45 minutes) [2] | Kd [4] | IC50 [3] | IC50 [5] | IC50 [6] | IC50 [7] | in vivo activity [9] | order of potency in terms of in vivo efficacy [9] | also measured
O=C(O)CN1C(=O)S/C(=C\c2ccc(-c3ccccc3)cc2)C1=O [Compound A, (Z)-2-(5-(biphenyl-4-ylmethylene)-2,4-dioxothiazolidin-3-yl)acetic acid] | 72% | 58% | 14000 nM | 400 nM | 500 ± 300 nM | 700 ± 600 nM | 800 ± 300 nM | equal to, or better than, known compounds gossypol and apogossypol | compound A>apogossypol=gossypol | weight loss or signs of toxicity via physical exam [8]: no weight loss or signs of toxicity; influence on the cell viability [5, 10]: largest influence on the cell viability; influence on the cell viability [6, 10]: largest influence on the cell viability; shrinkage of spleen ([9]; either route, orally or intraperitoneally): induced shrinkage of spleen; degree of shrinkage of spleen, intraperitoneal injection higher than oral dosing ([9]; intraperitoneal vs oral, FIG. 4): about 100%; degree of shrinkage of spleen higher than that induced by compounds 1 or 2 ([9]; intraperitoneally at 60 mmol/kg, spleens weighed after 24 hours, FIG. 3): about 40%
Cc1cc2c(C(C)C)c(O)c(O)cc2c(O)c1-c1c(C)cc2c(C(C)C)c(O)c(O)cc2c1O [apogossypol] | – | – | – | – | – | – | – | – | compound A>apogossypol=gossypol | –
apogossypolone | – | – | – | – | – | – | – | not effective | – | –

More lines, main results first:

Microsomal Stability, % (45 minutes) [1] | Plasma Stability, % (45 minutes) [2] | Kd [4] | Compound | IC50 [3] | IC50 [5] | IC50 [6] | IC50 [7] | in vivo activity [9] | order of potency in terms of in vivo efficacy [9] | also measured
54% | 56% | 1100 nM | CC(C)C(C(=O)O)N1C(=O)/C(=C\c2ccc(Br)cc2)SC1=S (stereo not drawn) [Compound 1] | 6500 ± 10000 nM | 3000 ± 2400 nM | 60900 ± 1600 nM | 12200 ± 5900 nM | – | – | –
22% | 59% | 160 nM | CC(C)C(C(=O)O)N1C(=O)/C(=C\c2ccc(-c3ccccc3)cc2)SC1=S (stereo not drawn) [Compound 2] | – | – | – | – | – | – | –
75% | 51% | 11800 nM | CC(=C\c1ccccc1)/C=C1/SC(=S)N(C(C(=O)O)C(C)C)C1=O (stereo not drawn) [Compound 3] | – | – | – | – | – | – | –
